According to patent publication US20060178382A1, “Chinazoline derivatives as aurora kinase inhibitors” (AstraZeneca AB, priority 2003, published 2006):

Key:
[1] = target: T1, Aurora-A kinase (Homo sapiens, UniProt O14965); assay: In vitro Aurora-A kinase inhibition test; assay type: biochemical
T1 construct: 6 histidine tag with spacer region and rTEV protease cleavage site (pFastBac HTc) (N); made in house; host or cells: Spodoptera frugiperda Sf21 insect cells (baculovirus)
T1 sequence (O14965 1-403): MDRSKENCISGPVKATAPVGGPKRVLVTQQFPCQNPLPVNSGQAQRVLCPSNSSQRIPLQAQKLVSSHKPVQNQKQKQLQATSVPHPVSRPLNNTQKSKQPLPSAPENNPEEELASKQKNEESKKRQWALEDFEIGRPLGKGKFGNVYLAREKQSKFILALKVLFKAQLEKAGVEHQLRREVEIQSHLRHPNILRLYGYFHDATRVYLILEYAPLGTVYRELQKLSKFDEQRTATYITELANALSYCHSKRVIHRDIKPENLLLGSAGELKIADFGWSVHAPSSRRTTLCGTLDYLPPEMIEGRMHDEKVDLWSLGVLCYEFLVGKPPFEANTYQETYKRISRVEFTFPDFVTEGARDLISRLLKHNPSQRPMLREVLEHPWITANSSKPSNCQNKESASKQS

[2] = target: T2, Aurora-B kinase (Homo sapiens, UniProt Q96GD4); assay: In vitro Aurora-B kinase inhibition test; assay type: biochemical; settings: recombinant Aurora-B, [γ33P]ATP, peptide substrate, 60 minutes room temperature; read-out: concentration giving 50% inhibition of enzyme activity
T2 construct: 6-histidine tag; made in house; host or cells: Spodoptera frugiperda Sf21 insect cells (baculovirus)
Description: (b) In Vitro Aurora-B Kinase Inhibition Test
This assay determines the ability of a test compound to inhibit serine-threonine kinase activity. DNA encoding Aurora-B may be obtained by total gene synthesis or by cloning. This DNA may then be expressed in a suitable expression system to obtain polypeptide with serine-threonine kinase activity. In the case of Aurora-B, the coding sequence was isolated from cDNA by polymerase chain reaction (PCR) and cloned into the pFastBac system in a manner similar to that described above for Aurora-A (i.e. to direct expression of a 6-histidine tagged Aurora-B protein).
For the large scale expression of Aurora-B kinase activity, Sf21 insect cells were grown at 28° C. in TC100 medium supplemented with 10% foetal calf serum (Viralex) and 0.2% F68 Pluronic (Sigma) on a Wheaton roller rig at 3 r.p.m. When the cell density reached 1.2×10^6 cells ml^−1 they were infected with plaque-pure Aurora-B recombinant virus at a multiplicity of infection of 1 and harvested 48 hours later. All subsequent purification steps were performed at 4° C. […]

T2 sequence (Q96GD4 whole entry): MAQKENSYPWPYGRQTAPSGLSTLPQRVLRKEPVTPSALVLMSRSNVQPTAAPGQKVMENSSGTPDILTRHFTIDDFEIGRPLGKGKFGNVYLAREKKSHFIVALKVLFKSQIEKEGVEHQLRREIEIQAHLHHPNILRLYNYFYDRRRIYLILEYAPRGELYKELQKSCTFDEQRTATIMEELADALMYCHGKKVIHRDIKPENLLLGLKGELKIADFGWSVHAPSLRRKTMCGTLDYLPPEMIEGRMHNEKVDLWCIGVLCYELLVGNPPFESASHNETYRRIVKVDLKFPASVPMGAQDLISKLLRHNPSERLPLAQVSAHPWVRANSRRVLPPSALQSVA

Row | Structure (SMILES) | IC50 [1] [µM] | IC50 [2] [µM]
1 | COc1cc2c(Nc3cn(CC(=O)Nc4cccc(F)c4)nn3)ncnc2cc1OCCCCl [Compound 1, 2-(4-{[7-(3-chloropropoxy)-6-methoxyguinazolin-4-yl]amino}-1H-1,2,3-triazol-1-yl)-N-(3-fluorophenyl)acetamide] | 0.9 | 0.1
2 | CCCN(CCO)CCCOc1cc2ncnc(Nc3cn(CC(=O)Nc4cccc(F)c4)nn3)c2cc1OC [Compound 4, N-(3-fluorophenyl)-2-{4-[(7-{3-[(2-hydroxyethyl)(propyl)amino]propoxy}-6-methoxyquinazolin-4-yl)amino]-1H-1,2,3-triazol-1-yl}acetamide] | 0.5 | 0.1
